Values quoted from earlier work as cited in US20040115234A1, “Cosmetic composition” (priority 2002, published 2004).

Legend:
[1] = tested on: eyelashes; conditions: Latanoprost at 0.005% by weight; clinical studies over up to 12 months; % of the subjects tested

- solubility in water: limited solubility in water
Structure (SMILES): CC(C)OC(=O)CCC/C=C\C[C@@H]1[C@@H](CC[C@@H](O)CCc2ccccc2)[C@H](O)C[C@@H]1O [Latanoprost, isopropyl-(Z)-7[(1R, 2R, 3R, 5S)3,5-dihydroxy-2-[(3R)-3-hydroxy-5-phenylpentyl]cyclopentyl]-5-heptenoate]
- subjects with induced change in color of eyelashes [1]: 16.5%
- subjects with induced change in density of eyelashes [1]: 22.2%
- subjects with induced change in length of eyelashes [1]: 25.8%
- subjects with induced change in thickness of eyelashes [1]: 17.5%
